Assay results as given in patent US11707557B2, “Compositions and devices incorporating water-insoluble therapeutic agents and methods of the use thereof” (COOK MEDICAL TECHNOLOGIES LLC, priority 2014, dated 2023).
Converted amounts (≈) assume the structure as drawn. Each block holds one compound with its values, some of them ahead of it.

Tests used:
[1] = Drug release from injectable PG:gallate pastes (60:40) into PBS; type: physicochemical; conditions: 60:40 PG:EGCG or PG:tannic acid, 2% w/w drug, PBS pH 7.4, 37° C.
Protocol: Methods: 60:40% w/w PG:EGCG or PG:tannic acid was used in these studies. 588 mg of propylene glycol was weighed into a 20 mL glass vials and 392 of EGCG or tannic acid was added followed by vortexing to distribute and dissolve the gallates. The vials were warmed to 60° C. and vortexed until all the contents were in solution. At this time 20 mg of drug was added (2% w/w) and vortexed until in solution. The following drugs were used: paclitaxel, docetaxel, retinoic acid, amphotericin B, and curcumin. 100 mg of each paste was weighed into the base of a 15 mL glass test tube and 10 mL of phosphate buffered saline was added at pH 7.4 and the tubes were incubated at 37° C. for certain times. All 10 mL of the PBS release media was removed and 1 mL analyzed by HPLC for drug content. 10 mL of fresh PBS was then added to all tubes

physchem [2] = assay: physchem
[3] = Drug concentrations obtained using EGCG at 50 mg per ml (microscopic check for particulates); type: physicochemical
Protocol: EGCG at 50 mg/ml and drug at approximately 250 micrograms per ml were dissolved in the listed solvent and dried down in a test tube under nitrogen. 1 ml of water was added, followed by vortexing. The solutions were examined for particulate matter under a microscope. If no particulates were present, the process was repeated with a higher drug amount. All the tested drugs remained in solution at the listed concentrations except for nystatin and hesperidin.

Caco2 cells = assay: Uptake and transfer of amphoterecin B into Caco2 cells; type: in vitro ADME, human; conditions: 3 hours, versus ambisome
Protocol: Caco2 cells were seeded onto 0.3 um transwell membranes and treated as in Example 9. A solution of amphoterecin B (250 ug per ml) in EGCG (25 mg per ml), tannic acid (25 mg/ml) in Hanks buffer pH 7.4. or ambisome was added to the top well for 3 hours. The bottom reservoir was collected and treated as in Example 8.

[4] = 24 h
physchem [5] = type: physicochemical; conditions: for solubility: thermodynamic from solid
Protocol: Method: Solutions of finasteride and either EGCG or tannic acid at various weight percentages in ethanol were dried down under nitrogen. Water was added and the dried material suspended/dissolved. […] The pH of tannic acid solutions was brought up to 7 by the addition of NAOH.

[6] = Release of finasteride from PVA foam embolization particles and Embospheres; type: physicochemical
Protocol: Method: PVA foam embolization particles (Cook. Medical Bloomington Ind.) size 180-300 um. Vial of 220 mg split into two. 150 mg of EGCG with 10 mg of finasteride or 250 mg tannic acid with 1 mg of finasteride were dried as a common film from ethanol and solubilised in 1 ml of water and added to the 100 mg of PVA particles. Solutions were mixed for 30 minutes. At this time it was observed that all the EGCG or tannic acid color (pink or brown respectively) had disappeared from the solution and gone into the PVA which was now heavily colored. The solution was discarded and the PVA freeze dried. 10 mg of the EGCG formulation or 5 mg of the tannic acid formulation was added to 2 ml of PBS (pH 7.4) and the release of finasteride was measured over 2 weeks.
Embospheres: Syringe contents ((Embospheres 500-700 um Merit Medical S. Jordan Utah) were split into two and incubated in water solutions of finasteride (1 mg/ml in 35 mg of EGCG or tannic acid made up from dried films as above) for 30 minutes with shaking. At this time it was observed that all the EGCG or tannic acid color (pink or brown respectively) had disappeared from the solution and gone into the Embospheres which were no heavily colored. The solution was discarded. 20% of the resulting particles (still wet) were then placed in microcentrifuge tubes containing 2 ml of PBS and drug release was measured.

[7] = Release from PLGA microspheres +/- EGCG or tannic acid; type: physicochemical; conditions: for drug released: first 20 days
Protocol: Method: The method involved pipetting a solution of the polymer PLGA (usually 20% w/v) and drug (usually 5% w/w to polymer) and EGCG (e.g. 20% w/w/ to polymer) in dichlomethane (DCM) (5 ml) into 100 ml of 2.5% PVA solution in water stirring at 450 rpm. The suspension was left stirring for 2 hours and the microspheres washed 4 times in distilled water. The microspheres were then dried under vacuum for 2 days. Drug encapsulation was measured by dissolving a known weight of microspheres in 1 ml of dichloromethane followed by immediate dilution to 10 ml in 60:40 acetonitrile/water. The amount of drug or EGCG in the top and bottom phase of this solution was measured using HPLC methods (mobile phase 58:37:5 Acetonitrile:water:methanol. 1 ml per min flow on a c18 column with detection at 232 nm)
Tannic acid: An alternative method was used, termed a water-in oil-in water emulsion. […] This forms a primary emulsion of water droplets in the PLGA solution stabilized by Span. When this emulsion was pipetted into the PVA solution the microspheres formed well. […] The microspheres were a light brown in color indicative of tannic acid encapsulation.
Methods: In these studies, 10 mg of microspheres were suspended in 2 ml of phosphate buffered saline (pH 7.4 10 mM phosphate) in microcentrifuge tubes and tumbled at 8 rpm at 37° C. The tubes were then centrifuged at 12000×g and the supernatants collected for drug analysis by HPLC. 2 ml of fresh PBS was then placed on top of the microspheres which were returned to the 37° C. oven for continued incubation with tumbling.
At the end of the study the residual mass of polymer and drug was dissolved in DCM and drug extracted into 60:40 acetonitrile:water to measure residual drug. The amounts of residual drug were 89% for plga alone (at 31 days), 16% for EGCG and 8% for tannic acid (both at 51 days) as expressed as a % of the original loading.

[8] = Liquid pharmaceutical excipients in gallate based pastes (solubility, viscosity score, pellet in water); type: physicochemical
Source text: Various additional water/soluble/miscible liquids were explored (in addition to propylene glycol and polyethylene glycol) as excipients in gallate based pastes.
A viscosity score was established as follows: 1) Fluid—22 gauge needle; 2) Semi Viscous—18 gauge needle; 3) Viscous—16 gauge needle; 4) Waxy Pellet in water.

[9] = aqueous with cosolvent or surfactant or cyclodextrin, thermodynamic from solid, drug concentration solubilised at maximum EGCG concentration

solubility (physchem [2]; [9]): ~1800 µg/mL (≈ 1.95 mM)
solubility (physchem [2]; aqueous with cosolvent or surfactant or cyclodextrin, thermodynamic from solid, drug concentration solubilised at maximum tannic acid concentration): ~5700 µg/mL (≈ 6.17 mM)
solubility (physchem [2]; water, free solubility in water): 1 to 10 µg/mL (≈ 0.00108 to 0.0108 mM)
Visual appearance [3]: clear
Drug Concentration ([3]; 1 ml of water): 125 microgram/ml
Particulates present ([3]; under a microscope): no
drug uptake and transport through the cells (Caco2 cells; 250 ug per ml in EGCG 25 mg per ml): much higher levels
drug uptake and transport through the cells (Caco2 cells; 250 ug per ml in tannic acid 25 mg/ml): much higher levels
stability of EGCG solutions of the drug [4]: stable for 24 hours
stability of tannic acid solutions of the drug [4]: stable for 24 hours
Compound: C[C@@H]1[C@H](O)[C@@H](C)/C=C/C=C/C=C/C=C/C=C/C=C/C=C/[C@H](O[C@@H]2O[C@H](C)[C@@H](O)[C@H](N)[C@@H]2O)C[C@@H]2O[C@](O)(C[C@@H](O)C[C@@H](O)[C@H](O)CC[C@@H](O)C[C@@H](O)CC(=O)O[C@H]1C)C[C@H](O)[C@H]2C(=O)O [amphotericin, amphotericin B]
drug release from PG:gallate paste [1]: relatively controlled release of the drug over 24 hours

Compound: CC(C)(C)NC(=O)[C@H]1CC[C@H]2[C@@H]3CC[C@H]4NC(=O)C=C[C@]4(C)[C@H]3CC[C@]12C [finasteride]
solubility (physchem [2]; [9]): ~11000 µg/mL (≈ 29.5 mM)
solubility (physchem [2]; pH 7, aqueous with cosolvent or surfactant or cyclodextrin, thermodynamic from solid, drug concentration solubilised at maximum tannic acid concentration): ~10000 µg/mL (≈ 26.8 mM)
stability of solutions (physchem [5]; 24 h): stable over 24 hours
solubility (physchem [5]; aqueous with cosolvent or surfactant or cyclodextrin): > 10000 µg/mL
solubility (physchem [5]; pH 7, aqueous with cosolvent or surfactant or cyclodextrin): 8000 to 10000 µg/mL (≈ 21.5 to 26.8 mM)
solubility (physchem [5]; water): 75 µg/mL (≈ 0.201 mM)
finasteride release ([6]; PVA incubated with tannic acid/finasteride solution, PBS, in 3 days): 100%
period of finasteride release ([6]; the other embolic particles (PVA with EGCG, Embospheres with EGCG or tannic acid)): over a two week period
drug released ([7]; PLGA microspheres with EGCG): approx 80%
drug released ([7]; PLGA microspheres with tannic acid): approx 80%
encapsulated drug released ([7]; PLGA microspheres without EGCG or tannic acid, after 32 days): 7%
residual drug as % of the original loading ([7]; PLGA with EGCG, at 51 days): 16%
residual drug as % of the original loading ([7]; PLGA with tannic acid, at 51 days): 8%
residual drug as % of the original loading ([7]; plga alone, at 31 days): 89%
stability of EGCG solutions of the drug [4]: stable for 24 hours
stability of tannic acid solutions of the drug [4]: stable for 24 hours

Solubility of EGCG in excipient [8]: 15%
Solubility of tannic acid in excipient [8]: 15%
Compound: Tween 80
